In brackets after ≈: the same amount, converted by molar mass.
Assays:
Saccharomyces cerevisiae [1] = experiment: microbe, parasite or virus in culture; conditions: ATCC 7754
Description: (§1) Antifungal activity against Saccharomyces cerevisiae ATCC 7754

physchem = conditions: octanol/water
Description: Partition coefficient (logP)

Saccharomyces cerevisiae [2] = experiment: microbe, parasite or virus in culture; conditions: ATCC 7754; remark: listed apart in the source
Description: as §1

SMILES	MIC (Saccharomyces cerevisiae [1]) [µg/mL]	logP (physchem)	MFC (Saccharomyces cerevisiae [2]) [µg/mL]
CCCCCCCC(C)OC(=O)c1ccc(O)c(O)c1 (configuration not stated)	25 (≈ 89.2 µM)	4.3	25 (≈ 89.2 µM)
CCCCOC(=O)c1ccc(O)c(O)c1	200 (≈ 951 µM)	2.32	400 (≈ 1900 µM)
CCCCCC/C=C/COC(=O)c1ccc(O)c(O)c1	6.25 (≈ 22.5 µM)	4.22	6.25 (≈ 22.5 µM)
O=C(OCC1CCCCC1)c1ccc(O)c(O)c1	50 (≈ 200 µM)	3.05	50 (≈ 200 µM)
CCCCCCC(CC)OC(=O)c1ccc(O)c(O)c1 (configuration not stated)	12.5 (≈ 44.6 µM)	4.37	12.5 (≈ 44.6 µM)
O=C(OC1CCC2CCCCC2C1)c1ccc(O)c(O)c1 (configuration not stated)	25 (≈ 86.1 µM)	3.62	25 (≈ 86.1 µM)
CCCOC(=O)c1ccc(O)c(O)c1	> 400	1.9	> 400
CC1(C)C2CCC1(C)C(OC(=O)c1ccc(O)c(O)c1)C2 (configuration not stated)	50 (≈ 172 µM)	3.78	50 (≈ 172 µM)
CCCCCOC(=O)c1ccc(O)c(O)c1	100 (≈ 446 µM)	2.73	100 (≈ 446 µM)
CC1CCC(C(C)C)C(OC(=O)c2ccc(O)c(O)c2)C1 (configuration not stated)	12.5 (≈ 42.8 µM)	4.1	12.5 (≈ 42.8 µM)
CCCCCC/C=C\COC(=O)c1ccc(O)c(O)c1	6.25 (≈ 22.5 µM)	4.22	6.25 (≈ 22.5 µM)
CC(C)=CCC/C(C)=C/COC(=O)c1ccc(O)c(O)c1	12.5 (≈ 43.1 µM)	3.84	12.5 (≈ 43.1 µM)
CC(C)=CCC/C(C)=C\COC(=O)c1ccc(O)c(O)c1	12.5 (≈ 43.1 µM)	3.84	25 (≈ 86.1 µM)
CCCCCCCOC(=O)c1ccc(O)c(O)c1 [HEPTYL 3,4-DIHYDROXYBENZOATE]	12.5 (≈ 49.5 µM)	3.57	12.5 (≈ 49.5 µM)
CCCCCCOC(=O)c1ccc(O)c(O)c1 [HEXYL 3,4-DIHYDROXYBENZOATE]	25 (≈ 105 µM)	3.15	25 (≈ 105 µM)
Clc1ccc(COC(Cn2ccnc2)c2ccc(Cl)cc2Cl)c(Cl)c1 (configuration not stated) [MICONAZOLE]	6.25 (≈ 15 µM)	–	50 (≈ 120 µM)

The next lines start with results.

MIC (Saccharomyces cerevisiae [1]) [µg/mL]	logP (physchem)	SMILES	MFC (Saccharomyces cerevisiae [2]) [µg/mL]
25 (≈ 77.1 µM)	4.83	CCCCCCCCCCCOC(=O)c1cc(O)cc(O)c1O	25 (≈ 77.1 µM)
> 400	5.24	CCCCCCCCCCCOC(=O)c1ccc(O)c(O)c1	> 400
200 (≈ 745 µM)	3.16	CCCCCCCOC(=O)c1cc(O)cc(O)c1O	200 (≈ 745 µM)
12.5 (≈ 40.3 µM)	4.42	CCCCCCCCCCOC(=O)c1cc(O)cc(O)c1O	25 (≈ 80.5 µM)
> 400	5.25	CCCCCCCCCCCCOC(=O)c1cc(O)cc(O)c1O	> 400
> 400	5.67	CCCCCCCCCCCCCOC(=O)c1cc(O)cc(O)c1O	> 400
50 (≈ 177 µM)	3.58	CCCCCCCCOC(=O)c1cc(O)cc(O)c1O	100 (≈ 354 µM)
25 (≈ 84.4 µM)	4	CCCCCCCCCOC(=O)c1cc(O)cc(O)c1O	25 (≈ 84.4 µM)
6.25 (≈ 22.3 µM)	4.4	CCCCCCCCCOC(=O)c1ccc(O)c(O)c1 [NONYL 3,4-DIHYDROXYBENZOATE]	1.25 (≈ 4.46 µM)
6.25 (≈ 23.5 µM)	3.99	CCCCCCCCOC(=O)c1ccc(O)c(O)c1 [OCTYL 3,4-DIHYDROXYBENZOATE]	12.5 (≈ 46.9 µM)

Source: ChEMBL document CHEMBL1136356, “Rational design of antimicrobial agents: antifungal activity of alk(en)yl dihydroxybenzoates and dihydroxyphenyl alkanoates” (Bioorg Med Chem Lett, 2003)
